What all share (assay type): biochemical
The target of one assay is SIK3 (Homo sapiens, UniProt Q9Y2K2). Description: Enzymatic activity assay SIK3, RapidFire mass spectrometry (phosphorylation of CHK-peptide). The note with it: RapidFire MS, inhibition of SIK3; read-out: SIK3 RF IC50. The protocol: (§1) Assay description SIK1-3, RapidFire:
(§2) In the presence of SIK2 (resp. SIK1 or SIK3) and ATP the CHK-peptide ([…] with C-terminal arginine amide modification) were phosphorylated at one of the four feasible serine's. Only one phosphorylation is observed under the assay conditions. 60 nl of each compound dilution series (12 point; dilution factor 3, generally 30 μM to 170 pM) in DMSO were transferred by acoustic dispensing to the assay plate and 30 min pre-incubated (ambient temperature) after the addition of 5 μl SIK1 (5 nM) resp. 5 μl SIK2 (0.5 nM) or 7 μl SIK3 (1.5 nM) in assay-buffer (12.5 mM HEPES (pH 7.0), 10 mM magnesium acetate, 0.005% BSA). 10 μM CHK-peptide solution and 5 μl 100 μM ATP for SIK1 & SIK2 resp. 3 μl for SIK3 in assay-buffer were added and incubated ambient for 45 min. 40 μl 0.125% formic acid in water were added to quench the reaction. RapidFire (RF) Mass Spectrometry was utilized for data generation as described below. The multiple charged species (3-5 charges) for the phosphorylated and non-phosphorylated form measured by MRM (Multiple Reaction Monitoring; API5000 or 6500+) or EIC (Extracted Ion Current; QToF) were summed up and the ratio calculated (sum phosphorylated species/sum all species) for data evaluation. Normalization was performed by Genedata software based on the non-inhibition control DMSO and the commercially available SIK inhibitor @ 1 μM YKL-05-099 (CAS number 1936529-65-5). The results of the assay are expressed in half-maximal inhibitory concentrations (IC50s) and are summarized below in Table 1.
(§3) Samples were aspirated by vacuum for max. 600 ms and loaded to C4-cartridge (Agilent; #G9203A) for 3000 ms@1.5 ml/min with 0.1% formic acid in water. Afterwards samples were transferred to the APT5000 (APT6500+) or QToF mass spectrometer for 4000 ms@1.25 ml/min with 90% acetonitrile; 10% water; 0.007% TFA; 0.093 formic acid. The cartridge was reconditioned for additional 500 ms with 0.1% formic acid in water
(§4) All MS analyses using the following MS-setup in MRM mode: Electrospray positive; Ion Spray Voltage: 4000V; Temperature: 550° C.; Collision Gas: 5; Curtain Gas: 15; Gas1: 40; Gas 2: 42; EP: 10
(§5) MS-Setup Agilent QToF 6545
(§6) All MS analyses using the following MS-setup in Mode MS: Dual AJS Electrospray positive; VCap: 3000V; Drying & Sheath gas: 340° C.@81/min; Nebulizer: 60 psig; Nozzle Voltage: 2000V; Fragmentor: 130V; Skimmer: 35V; Oct1 RF Vpp: 700V; Ref masses on@5spectra/s

For a further assay, the target named is SIK1 (Homo sapiens, UniProt P57059). Description: Enzymatic activity assay SIK1, RapidFire mass spectrometry (phosphorylation of CHK-peptide). To be noted: RapidFire MS, inhibition of SIK1; read-out: SIK1 RF IC50. As for the experimental part:
as §1, §2, §3, §4, §5, §6

The target in a further assay is SIK2 (Homo sapiens, UniProt Q9H0K1). Description: Enzymatic activity assay SIK2, RapidFire mass spectrometry (phosphorylation of CHK-peptide). To be noted: RapidFire MS, inhibition of SIK2; read-out: SIK2 RF IC50. As for the experimental part:
as §1
as §2, with “Only one phosphorylation is observed under the assay conditions. 60 nl of each compound dilution series (12 point; dilution factor 3, generally 30 μM to 170 pM) in DMSO were transferred by acoustic dispensing to the assay plate and 30 min pre-incubated (ambient temperature) after the addition of 5 μl SIK1 (5 nM) resp.” left out, “1936529-65-5).” for “1936529-65-5). The results of the assay are expressed in half-maximal inhibitory concentrations (IC50s) and are summarized below in Table 1.”
as §3, §4, §5, §6

Chain of SIK1 (P57059 whole entry): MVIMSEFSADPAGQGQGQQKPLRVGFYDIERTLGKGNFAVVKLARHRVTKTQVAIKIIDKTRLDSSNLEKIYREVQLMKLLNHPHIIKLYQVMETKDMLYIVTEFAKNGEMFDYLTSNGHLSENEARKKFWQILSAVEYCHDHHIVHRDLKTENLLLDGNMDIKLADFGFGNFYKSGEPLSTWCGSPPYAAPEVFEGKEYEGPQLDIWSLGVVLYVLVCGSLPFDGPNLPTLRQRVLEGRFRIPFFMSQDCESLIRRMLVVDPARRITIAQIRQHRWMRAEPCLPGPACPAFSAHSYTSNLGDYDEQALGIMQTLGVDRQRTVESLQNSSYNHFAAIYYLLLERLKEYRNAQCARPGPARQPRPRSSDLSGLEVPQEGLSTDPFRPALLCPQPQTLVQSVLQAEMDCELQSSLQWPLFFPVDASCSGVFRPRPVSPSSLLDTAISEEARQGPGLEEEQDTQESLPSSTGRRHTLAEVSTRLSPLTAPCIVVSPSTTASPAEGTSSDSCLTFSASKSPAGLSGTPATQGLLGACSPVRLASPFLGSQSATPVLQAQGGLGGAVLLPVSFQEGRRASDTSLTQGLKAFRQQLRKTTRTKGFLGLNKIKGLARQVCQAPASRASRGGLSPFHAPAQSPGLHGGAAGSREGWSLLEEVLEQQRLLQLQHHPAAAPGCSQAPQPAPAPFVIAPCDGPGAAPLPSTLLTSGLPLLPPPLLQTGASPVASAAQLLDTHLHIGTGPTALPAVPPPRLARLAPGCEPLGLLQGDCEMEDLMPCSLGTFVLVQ
Chain of SIK3 (Q9Y2K2 whole entry): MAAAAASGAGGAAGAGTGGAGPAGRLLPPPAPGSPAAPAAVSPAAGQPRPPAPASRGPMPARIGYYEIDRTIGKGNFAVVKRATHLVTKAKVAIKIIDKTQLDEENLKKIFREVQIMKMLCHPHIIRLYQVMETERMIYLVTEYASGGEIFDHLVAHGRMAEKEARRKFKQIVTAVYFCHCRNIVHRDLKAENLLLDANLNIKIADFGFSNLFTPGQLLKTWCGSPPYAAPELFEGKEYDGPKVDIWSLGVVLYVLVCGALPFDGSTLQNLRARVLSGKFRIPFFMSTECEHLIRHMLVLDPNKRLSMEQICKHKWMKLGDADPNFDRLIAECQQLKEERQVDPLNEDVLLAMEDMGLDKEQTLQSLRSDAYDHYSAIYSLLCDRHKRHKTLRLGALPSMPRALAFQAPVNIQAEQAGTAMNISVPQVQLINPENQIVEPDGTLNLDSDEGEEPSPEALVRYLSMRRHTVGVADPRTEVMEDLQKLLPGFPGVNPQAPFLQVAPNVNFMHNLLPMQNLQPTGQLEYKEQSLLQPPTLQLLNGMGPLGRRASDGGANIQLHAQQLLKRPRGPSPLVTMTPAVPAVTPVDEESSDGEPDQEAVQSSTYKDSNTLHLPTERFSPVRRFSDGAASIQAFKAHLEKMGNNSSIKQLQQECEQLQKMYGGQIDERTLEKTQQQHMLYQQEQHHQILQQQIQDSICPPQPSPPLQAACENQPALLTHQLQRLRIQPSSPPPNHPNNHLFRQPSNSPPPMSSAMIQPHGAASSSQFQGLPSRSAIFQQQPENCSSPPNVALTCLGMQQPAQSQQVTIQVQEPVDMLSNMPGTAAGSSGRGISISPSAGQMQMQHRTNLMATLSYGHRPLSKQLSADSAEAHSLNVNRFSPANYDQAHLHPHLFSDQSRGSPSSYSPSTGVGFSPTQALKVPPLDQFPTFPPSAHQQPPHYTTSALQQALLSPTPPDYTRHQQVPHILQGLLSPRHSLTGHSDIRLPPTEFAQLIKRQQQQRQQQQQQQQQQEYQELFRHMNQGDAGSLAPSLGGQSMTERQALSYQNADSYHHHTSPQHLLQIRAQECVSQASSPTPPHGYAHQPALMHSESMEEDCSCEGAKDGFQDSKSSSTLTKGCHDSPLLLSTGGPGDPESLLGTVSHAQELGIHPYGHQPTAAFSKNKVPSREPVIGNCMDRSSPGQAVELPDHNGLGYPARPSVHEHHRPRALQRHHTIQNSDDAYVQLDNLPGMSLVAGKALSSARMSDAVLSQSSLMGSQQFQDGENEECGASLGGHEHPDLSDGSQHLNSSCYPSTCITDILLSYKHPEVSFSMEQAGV
Chain of SIK2 (Q9H0K1 whole entry): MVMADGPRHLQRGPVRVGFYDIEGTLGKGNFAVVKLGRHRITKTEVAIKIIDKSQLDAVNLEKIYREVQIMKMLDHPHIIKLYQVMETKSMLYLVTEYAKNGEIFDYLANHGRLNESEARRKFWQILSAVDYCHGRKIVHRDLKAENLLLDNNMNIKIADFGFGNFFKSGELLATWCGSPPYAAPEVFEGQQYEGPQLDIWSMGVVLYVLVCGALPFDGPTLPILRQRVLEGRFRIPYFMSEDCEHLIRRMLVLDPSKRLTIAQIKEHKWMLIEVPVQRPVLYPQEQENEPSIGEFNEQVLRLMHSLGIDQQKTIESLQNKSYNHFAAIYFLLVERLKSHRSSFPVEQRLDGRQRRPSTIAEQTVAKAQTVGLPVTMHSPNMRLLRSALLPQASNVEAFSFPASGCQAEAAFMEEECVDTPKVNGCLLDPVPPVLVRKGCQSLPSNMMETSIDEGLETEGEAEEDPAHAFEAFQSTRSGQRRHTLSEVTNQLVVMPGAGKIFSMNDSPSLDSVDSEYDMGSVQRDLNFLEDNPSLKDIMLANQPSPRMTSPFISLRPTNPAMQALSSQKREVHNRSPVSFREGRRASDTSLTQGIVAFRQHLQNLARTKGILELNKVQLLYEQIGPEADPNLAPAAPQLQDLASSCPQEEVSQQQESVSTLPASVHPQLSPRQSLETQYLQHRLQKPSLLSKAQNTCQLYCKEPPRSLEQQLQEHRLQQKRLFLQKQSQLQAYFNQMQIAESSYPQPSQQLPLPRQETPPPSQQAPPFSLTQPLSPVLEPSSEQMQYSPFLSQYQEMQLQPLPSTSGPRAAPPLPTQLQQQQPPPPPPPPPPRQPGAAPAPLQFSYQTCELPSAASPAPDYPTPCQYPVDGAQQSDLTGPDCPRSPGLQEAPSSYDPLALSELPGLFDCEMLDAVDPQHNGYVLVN

A word on the IC50: it is the concentration that inhibits the measured activity by half. `Cc1cc(C#N)nn1-c1nc(-n2cnc3cc(NC(=O)C4(F)CC4)ccc32)ccc1C(C)O` (centres unmarked) [Example 380, N-[1-[6-(3-cyano-5-methyl-pyrazol-1-yl)-5-(1-hydroxyethyl)-2-pyridyl]benzimidazol-5-yl]-1-fluoro-cyclopropanecarboxamide]: the values for the IC50 on SIK3, at SIK1 and on SIK2 were 12.4 nM, 81 nM and 16.6 nM, respectively.
The corresponding values for `COc1nn(C)cc1-c1ccc2c(c1)ncn2-c1ccc(C(C)O)c(-n2nc(C#N)cc2C)n1` (centres unmarked) [Example 334, 1-[3-(1-hydroxyethyl)-6-[5-(3-methoxy-1-methyl-pyrazol-4-yl)benzimidazol-1-yl]-2-pyridyl]-5-methyl-pyrazole-3-carbonitrile] are 3.4 nM, 3 nM and 1.6 nM.
The matching figures for `Cc1ccc(Nc2ccc3c(c2)ncn3-c2ccc(C(C)O)c(-n3nc(C#N)cc3C)n2)cn1` (centres unmarked) [Example 81, 1-[3-(1-Hydroxyethyl)-6-[5-[(6-methyl-3-pyridyl)amino]benzimidazol-1-yl]-2-pyridyl]-5-methyl-pyrazole-3-carbonitrile]: 0.8 nM, 9 nM and 2.3 nM.
`Cc1ccc(Nc2ccc3c(c2)ncn3-c2ccc(C(C)O)c(N3CC[C@@H](C#N)C3)n2)nn1` (stereo partly drawn) [Example 105, (3R)-1-[3-(1-Hydroxyethyl)-6-[5-[(6-methylpyridazin-3-yl)amino]benzimidazol-1-yl]-2-pyridyl]pyrrolidine-3-carbonitrile]: the half-inhibitory concentration (IC50) at SIK3 is 236 nM; at SIK1, 1340 nM; at SIK2 it was 783 nM.
The matching figures for `Cc1cc(C#N)nn1-c1nc(-n2cnc3cc(-c4ccn(C)c(=O)n4)ccc32)ccc1C(C)O` (centres unmarked) [Example 338, 1-[3-(1-hydroxyethyl)-6-[5-(1-methyl-2-oxo-pyrimidin-4-yl)benzimidazol-1-yl]-2-pyridyl]-5-methyl-pyrazole-3-carbonitrile]: 27.6 nM, 87 nM and 27.2 nM.
The corresponding values for `Cc1ccc(Oc2ccc3c(c2)ncn3-c2ccc(C(C)O)c(-c3cn(CC(F)(F)F)nc3C)n2)nn1` (centres unmarked) [Example 351, 1-[6-[5-(6-methylpyridazin-3-yl)oxybenzimidazol-1-yl]-2-[3-methyl-1-(2,2,2-trifluoroethyl)pyrazol-4-yl]-3-pyridyl]ethanol] are 9.3 nM, 3390 nM and 35.4 nM.
The corresponding values for `Cc1ccc(Nc2ccc3c(c2)ncn3-c2ccc(C(C)O)c(-n3ncc(C#N)c3C)n2)nn1` (centres unmarked) [Example 151, 1-[3-(1-Hydroxyethyl)-6-[5-[(6-methylpyridazin-3-yl)amino]benzimidazol-1-yl]-2-pyridyl]-5-methyl-pyrazole-4-carbonitrile] are 1880 nM, 13600 nM and 4710 nM.
`Cc1ccc(Nc2ccc3c(c2)ncn3-c2ccc(C(C)O)c(-c3ccoc3C#N)n2)nn1` (centres unmarked) [Example 204, 3-[3-(1-Hydroxyethyl)-6-[5-[(6-methylpyridazin-3-yl)amino]benzimidazol-1-yl]-2-pyridyl]furan-2-carbonitrile]: the IC50 amounted to 34.4 nM on SIK3, 9950 nM at SIK1 and 141 nM at SIK2.
On to `Cc1ccc(Nc2ccc3c(c2)ncn3-c2ccc(C(C)O)c(-c3cn(C(F)F)nc3C)n2)nn1` (centres unmarked) [Example 149, 1-[2-[1-(Difluoromethyl)-3-methyl-pyrazol-4-yl]-6-[5-[(6-methylpyridazin-3-yl)amino]benzimidazol-1-yl]-3-pyridyl]ethanol], for which the IC50 was 1.9 nM at SIK3, 1290 nM on SIK1 and 8.4 nM on SIK2.
Consider `Cc1ccc(Nc2ccc3c(c2)ncn3-c2ccc(C(C)O)c(N3CCNC4(CC4)C3)n2)nn1` (centres unmarked) [Example 329, 1-[2-(4,7-diazaspiro[2.5]octan-7-yl)-6-[5-[(6-methylpyridazin-3-yl)amino]benzimidazol-1-yl]-3-pyridyl]ethanol], for which the results for the IC50 at SIK3, on SIK1 and at SIK2 were 10 nM, 1740 nM and 59 nM, respectively.
For the compound `COc1cc2ncn(-c3ccc(CO)c(N4CCCCC4)n3)c2cc1OC` [Example 28, (6-(5,6-Dimethoxy-1H-benzo[d]imidazol-1-yl)-2-(piperidin-1-yl)pyridin-3-yl)methanol], the half-inhibitory concentration (IC50) worked out at 713 nM on SIK3, 326 nM on SIK1 and 268 nM on SIK2.
On to `Cc1ccc(Nc2cc3ncn(-c4ccc(C(C)O)c(-n5nc(OC(F)F)cc5C)n4)c3cc2CC2COC2)nn1` (centres unmarked) [Example 407, 1-[2-[3-(difluoromethoxy)-5-methyl-pyrazol-1-yl]-6-[5-[(6-methylpyridazin-3-yl)amino]-6-(oxetan-3-ylmethyl)benzimidazol-1-yl]-3-pyridyl]ethanol], for which the values for the half-maximal inhibitory concentration (IC50) at SIK3, on SIK1 and on SIK2 were 22.9 nM, 321 nM and 12.9 nM, respectively.
The corresponding values for `CC(O)c1ccc(-n2cnc3cc(OCCN4CCOCC4)ccc32)nc1Nc1ccccc1` (centres unmarked) [Example 55, 1-[2-Anilino-6-[5-(2-morpholinoethoxy)benzimidazol-1-yl]-3-pyridyl]ethanol] are 130 nM, 1290 nM and 103 nM.
The corresponding values for `Cc1ccc(Nc2ccc3c(c2)ncn3-c2ccc(C(C)O)c(N3CCN(CC(F)(F)F)C(=O)C3)n2)nn1` (centres unmarked) [Example 136, 4-[3-(1-Hydroxyethyl)-6-[5-[(6-methylpyridazin-3-yl)amino]benzimidazol-1-yl]-2-pyridyl]-1-(2,2,2-trifluoroethyl)piperazin-2-one] are 3.9 nM, 345 nM and 13 nM.
As to `Cc1ccc(Nc2ccc3c(c2)ncn3-c2ccc(C(C)O)c(-n3nc(C#N)cc3C)n2)nn1` (centres unmarked) [Example 64, 1-[3-(1-Hydroxyethyl)-6-[5-[(6-methylpyridazin-3-yl)amino]benzimidazol-1-yl]-2-pyridyl]-5-methyl-pyrazole-3-carbonitrile], the IC50 on SIK3 worked out at 0.6 nM; on SIK1 it was 59 nM.
The matching figures for `Cc1ccc(Nc2ccc3c(c2)ncn3-c2ccc([C@@H](C)O)c(-n3nc(C#N)cc3C)n2)nn1` [Example 110, 5-Methyl-1-[6-[5-[(6-methylpyridazin-3-yl)amino]benzimidazol-1-yl]-3-[(1R)-1-hydroxyethyl]-2-pyridyl]pyrazole-3-carbonitrile]: 0.2 nM and 26 nM.
The corresponding values for `Cc1ccc(Nc2ccc3c(c2)ncn3-c2ccc([C@H](C)O)c(-n3nc(C#N)cc3C)n2)nn1` [Example 109, 5-Methyl-1-[6-[5-[(6-methylpyridazin-3-yl)amino]benzimidazol-1-yl]-3-[(1S)-1-hydroxyethyl]-2-pyridyl]pyrazole-3-carbonitrile] are 18.6 nM and 1800 nM.
`Cc1ccc(Nc2ccc3c(c2)ncn3-c2ccc(C(C)O)c(-c3cccnc3-c3cn[nH]c3)n2)nn1` (centres unmarked) [Example 186, 1-[6-[5-[(6-Methylpyridazin-3-yl)amino]benzimidazol-1-yl]-2-[2-(1H-pyrazol-4-yl)-3-pyridyl]-3-pyridyl]ethanol]: the values for the IC50 at SIK3 and at SIK2 were 1060 nM and 1240 nM, respectively.

The values above are taken from patent US20240383875A1, “Benzimidazole Pyridine Derivatives” (Hoffmann-La Roche Inc., priority 2022, published 2024).
